Reference: US20150265669A1, “METHODS AND COMPOSITIONS FOR INHIBITING CANCER CELL GROWTH” (priority 2014, published 2015)
Converted amounts (≈) assume the structure as drawn.

Tests used:
[1] = tested on: Spleen tissue of leukaemic BALB/c mice; assay: TUNEL assay of spleen tissue; type: in vivo; conditions: Morinda at low and high doses
A549 cells (lung cancer) [2] = assay: AO/PI double staining fluorescence microscopy; type: cell-based, human; conditions: 200x
Experimental: AO/PI double staining was carried out to visualize any morphological changes in the cells upon treatment and also to semi-quantitated viable, apoptotic and necrotic cells, as shown in FIG. 3. […] After 24 hours treatment, blebbing of the cell membrane and dense green nucleus, which indicated nuclear chromatin condensation were noticeable (FIGS. 3(b) and 3(e)). Both early apoptosis features (blebbing and chromatin condensation) and late phases of apoptosis, which specify presence of intense reddish-orange colour due to acridine orange binding to denatured DNA, were observed more apparent at 48 hours of treatment (FIGS. 3(c) and 3(f)) and prominent at 72 hours (FIGS. 3(d) and 3(g)).

[3] = tested on: A549 cells injected subcutaneously; assay: In vivo tumor xenograft model; design: species or system mice; conditions: erlotinib 50 mg/kg, daily oral gavage 21 days
Experimental: Male BALB/C mice (6 weeks old, weighing 19-20 g) were purchased from Faculty of Veterinary Medicine, University Putra Malaysia. Mice were housed in laminar air-flow cabinets under pathogen-free conditions with a 12-h light/12-h dark schedule and fed with autoclaved standard chow and water ad libitum. A549 cells (2×10^7) resuspended in 100 μL PBS were injected subcutaneously into the backs of mice. When tumor size reached approximately 100 mm^3, after 14 days of implantation, mice were randomly assigned to the following experimental groups and administered daily by oral gavage for 21 days: (a) saline; (b) erlotinib (50 mg/kg); (c) 150 mg/kg and (d) 300 mg/kg of Morinda spp. leaves, Clinacanthus spp. leaves. Mice were sacrificed via intraperitoneal injection of ketamine HCl (100 mg/kg) and xylazine (10 mg/kg). Tumor was collected. Some were kept in liquid nitrogen for gene expression, while others were fixed in 10% formalin and embedded in paraffin for hematoxylin and eosin (H&E) and immunohistochemical (IHC) examination. IHC kits (ChemMate™ DAKO EnVision™ Detection Kit, Peroxidase/DAB, Rabbit/Mouse) were purchased from Dako, Denmark. […]
Data was expressed as mean±standard deviation (mean±SD) of at least three independent experiments; significant differences (p<0.05) using one-way analysis of variance (ANOVA) and Duncan test using statistical analysis IBM SPSS Statistics 21 software.

A549 (lung cancer) = assay: Colourimetric assay of caspase 3, 8 and 9 in A549; type: cell-based, human; conditions: A549, treated vs untreated cells, 24-72 hours
Experimental: The colorimetric assay of caspase 3 was performed using fluorometric and colorimetric assay kit (biotium kit). Wehi-3B (blood cancer) or A549 (lung cancer) cells at concentration of 1×10^6 cells/ml were cultured in RPMI 1640 (ATCC, USA) medium supplemented with 10% fetal bovin serum and were seeded into […] culture flask. […] Untreated cells acted as control. The cells were lysed with cold lysis buffer and incubated for 10 minutes on ice. Then, cell lysate was spun down at 10000 rpm for 5 minutes. The supernatant was transferred to new wells and 50 μl assay buffer was added to each samples. Then, 5 μl of enzyme substrate (caspase-3 and 8 substrate) was added to each sample and incubated at 37° c. for 30-60 minutes in a dark place. […]. The samples were read at 495 nm in a microplate reader. Finally, the results were shown as optical density (495 nm, mean SD).

A549 cells = assay: MTT cytotoxicity assay on A549 cells; type: cell-based; conditions: Homo sapiens, after 72 hours, read-out: IC50 concentrations
Experimental: The cytoxicity properties of the extract were determined by using MTT assay. MTT dye is a water-soluble yellow dye that is decreased in viable cells to MTT-formazan (3-[4,5-dimethylthiazol-2-yl]-3,5-diphenylformazan) that is an insoluble purple colored product, by the succinate dehydrogenase mitochondrial enzyme. The cells were seeded in 96-well Microplates at a density of 2×10^5 cells/ml. After 24 hours incubation, the cells were treated with various concentrations of Morinda leaf, or Clinacanthus spp. Leaves and root extract ([…]) for 24, 48 and 72 h. After 72 hours of incubation, 20 μL of MTT solution (5 mg/ml in PBS) was added in each well and the plates incubated for 4 hours. Then, after removing the media the formazan crystals were dissolved with 100 μL DMSO. Finally the absorbance was determined at 570 and 630 nm in a microplate reader (ECAN, Sunrise™, Männedorf, Switzerland). Cell viability was calculated as the percentage of absorbent compared to control. The 50% inhibitory concentration (IC50) value, defined as the amount of Morinda citrifolia leaf, or Clinacanthus spp. Leaves and root extract that inhibits 50% of cell growth, was calculated from the concentration-response curves. All experiments were carried out in triplicate. Three independent experiments performed in triplicate were used for these calculations. […]

tumor tissues = assay: Mouse apoptosis RT-PCR-Array on tumor tissues; type: in vivo, mice
Experimental: Male BALB/C mice (6 weeks old, weighing 19-20 g) were purchased from Faculty of Veterinary Medicine, University Putra Malaysia. Mice were housed in laminar air-flow cabinets under pathogen-free conditions with a 12-h light/12-h dark schedule and fed with autoclaved standard chow and water ad libitum. A549 cells (2×10^7) resuspended in 100 μL PBS were injected subcutaneously into the backs of mice. When tumor size reached approximately 100 mm^3, after 14 days of implantation, mice were randomly assigned to the following experimental groups and administered daily by oral gavage for 21 days: (a) saline; (b) erlotinib (50 mg/kg); (c) 150 mg/kg and (d) 300 mg/kg of Morinda spp. leaves, Clinacanthus spp. leaves. Mice were sacrificed via intraperitoneal injection of ketamine HCl (100 mg/kg) and xylazine (10 mg/kg). Tumor was collected. Some were kept in liquid nitrogen for gene expression, while others were fixed in 10% formalin and embedded in paraffin for hematoxylin and eosin (H&E) and immunohistochemical (IHC) examination. IHC kits (ChemMate™ DAKO EnVision™ Detection Kit, Peroxidase/DAB, Rabbit/Mouse) were purchased from Dako, Denmark. The primary antibody was anti-EGFR antibody ab15669 (Abeam; Cambridge, United Kingdom). This protocol was approved by the Animal Care and Use Committee of University Putra Malaysia (UPM/IACUC/AUP-R016/2013).
RNA was isolated using Trizol (Invitrogen, Carlsbad, Calif.). Custom RT^2 Profiler PCR Array (CAPM11988), RT^2 SYBR Green qPCR Mastermix, RT^2 First Strand Kit and RNase-Free DNase Set were purchased from SuperArray Bioscience Corporation (Frederick, Md.). Quantitative RT-PCR array for differentially expressed genes of interest was performed utilizing RT^2 Profiler PCR Array Data Analysis version 3.5 (SABiosciences; Fredrick, Md., USA), which normalized to Hsp90ab1 (NM_008302) and Gapdh (NM_008084). RT-PCR data is represented as the average relative mRNA gene expression of each experimental group (n=3).

A549 cells (lung cancer) [4] = assay: Flow cytometric cell cycle phase distribution; type: cell-based, human; conditions: A549, IC50 concentration; for cell cycle arrest: 12-72 hours
Experimental: The Wehi-3B (blood cancer) or A549 (lung cancer) cells (2×10^5 cells/mL) were treated with IC50 concentration of Morinda spp. leaves, or Clinacanthus spp. leaves with or without Zingiber extract and compared with erlotinib. After 12, 24, 48, and 72 hours of incubation, the cells were trypsinized, washed, fixed in 70% ethanol, stained with 1 mg/mL PI and analysed by flow cytometry (BD FACS Canto II, USA).
For flow cytometry analysis fixation of cell population must be performed to keep the integrity and the cell pellets were fixed by adding of 500 μl of 70% chilled ethanol and kept at −20° c. for 5-7 days. Then, the cells were centrifuged at 1000 rpm for 10 minutes and the ethanol was removed. The cells were washed with washing solution containing PBS, EDTA, bovine serum albumin and sodium azide twice, and the pellet cells were resuspended to staining buffer containing 1 ml PBS and 3 μl PI (10 mg/ml) and 10 μl RNase A (50 mg/ml) for 30 minutes on ice dark place. RNase was added in order to permit PI to bind exactly to DNA. The DNA content of cells was analysed with a BD flow cytometer, and the data analysis was performed by using summit V4.3 software.

A549 cells (lung cancer) [5] = assay: Morphological changes under normal phase contrast inverted microscope; type: cell-based, human; conditions: 400x
Experimental: Wehi-3B (blood cancer) or A549 (lung cancer) cells at concentration of 1×10^6 cells/ml were cultured in RPMI 1640 (ATCC, USA) medium supplemented with 10% fetal bovin serum and were seeded into […] culture flask. […] The morphological changes of the cells were observed under normal inverted microscope. Untreated cells were used as negative control. Some morphological appearances such as plasma membrane blebbing, rounding up the cells, cell detachment, cell shrinkage and formation of vacuole in the cell were observed.
Similarly Human lung fibroblast (MRC5), human lung adenocarcinoma (A549) cell lines, Essential Modified Eagle's Medium (EMEM) and Kaighn's Modification of Ham's F-12 (F-12K) medium were obtained from American Type Culture Collection (ATCC). MRC5 and A549 cells were cultured in EMEM and F-12K medium, respectively. Both media supplemented with 10% fetal bovine serum (FBS) and 1% of 100 μg/mL penicillin and streptomycin. Cells were grown in a humidified incubator at 37° C. with 5% CO2.

[6] = Erlotinib 50 mg/kg, vs untreated

`CC1=C(/C=C/C(C)=C/C=C/C(C)=C/C(=O)O)C(C)(C)CCC1` [ATRA] was tested. Which “apoptosis in spleen tissue (TUNEL)” value [1] did it give?
Its value is “significant (P<0.05) apoptosis”.

With `C#Cc1cccc(Nc2ncnc3cc(OCCOC)c(OCCOC)cc23)c1` [erlotinib] as the molecule, how does the AO/PI double-stained morphology (A549 cells (lung cancer) [2]; after 24 h) read?
The AO/PI double-stained morphology was “cells exhibit blebbing of the cell membrane and bright green nucleus showing condensation of chromatin”.

And the AO/PI double-stained morphology (A549 cells (lung cancer) [2]; after 48 h)?
The AO/PI double-stained morphology was “late apoptosis features were seen”.

And the AO/PI double-stained morphology (A549 cells (lung cancer) [2]; after 72 hours)?
The AO/PI double-stained morphology was “more late apoptosis”.

And the tumor size [3]?
The tumor size was 36.26±37.00 mm^3.

What about the “activity of caspase 9” value (A549 (lung cancer)) of the same molecule?
The value was “remained unchanged”.

And the “activity of caspase-3” value (A549 (lung cancer))?
Its value is “significantly (P<0.05) increased”.

And the “activity of caspase-8” value (A549 (lung cancer))?
The value was “significantly (P<0.05) increased”.

And the IC50 (A549 cells)?
The IC50 was 2.83 µg/mL (≈ 7.19 µM).

And the “Fold Change Bcl2” value (tumor tissues; [6])?
Its value is −3.57 fold.

What about the “Fold Change Birc5” value (tumor tissues; [6]) of the same molecule?
The value was −2.40 fold.

And the “Fold Change Jak2” value (tumor tissues; [6])?
The value was −1.26 fold.

What about the “Fold Change Stat3” value (tumor tissues; [6]) of the same molecule?
Its value is 1.06 fold.

And the “Fold Change Stat5a” value (tumor tissues; [6])?
The value was 1.42 fold.

And the “Fold Change Trp53” value (tumor tissues; [6])?
The value was −1.10 fold.

And the “survivin and Bcl-2 expression” value (tumor tissues; erlotinib positive control)?
The value was “down-regulation”.

And the “S and G2/M phase cells” value (A549 cells (lung cancer) [4])?
The value was “concomitant decrease”.

What about the cell cycle arrest (A549 cells (lung cancer) [4]) of the same molecule?
The cell cycle arrest was “induced G0/G1 phase cell cycle arrested”.

And the cell cycle arrest (A549 cells (lung cancer) [4]; listed as erlotnib)?
Its cell cycle arrest is “induced G0/G1 arrest”.

What about the “morphological changes of A549 cells” value (A549 cells (lung cancer) [5]; after 24 h) of the same molecule?
Its value is “most of the cells exhibit normal morphology while some cells show cell shrinkage”.

And the “morphological changes of A549 cells” value (A549 cells (lung cancer) [5]; after 48 h)?
Its value is “clear apoptogenic morphology such as blebbing and cell shrinkage observed”.

What about the “morphological changes of A549 cells” value (A549 cells (lung cancer) [5]; after 72 h) of the same molecule?
Its value is “most of the cells were detached with obvious cell shrinkage, and blebbing of the cell membrane”.
